Reference: PubChem BioAssay AID248 (DTP/NCI, 2004)
Several values for one entry are separate records, joined by “and”; a condition that tells them apart may be missing. Equal values may be shown once. Inconclusive results and toxic doses are left out. Cut-off read from the data, not from the text of the source: active = T/C of 150% or more; inactive = T/C below 125%.

Tested on: L1210 leukemia ip in BDF1 mice, survival T/C
Assay: NCI In Vivo Anticancer Drug Screen. Data for tumor model L1210 Leukemia (intraperitoneal) in B6D2F1 (BDF1) mice
Conditions: endpoint: mean survival time, higher = longer survival
Outline: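 Mice bearing the transplanted tumor received compound or vehicle. Survival of the treated group was divided by that of the vehicle-treated control group to give the ratio.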

Measured: T/C

Nc1ccc(OC(=O)Oc2ccc(N)cc2)cc1
inactive: dose: 5.0 mg/kg/injection, schedule: Q01DX Z (iv), vehicle: saline 101 % of control | dose: 6.25 mg/kg/injection, schedule: Q#A X Z (oral), vehicle: saline 106 % of control | dose: 10.0 mg/kg/injection, schedule: Q01DX Z (iv), vehicle: saline 101 % of control | dose: 12.5 mg/kg/injection, schedule: Q01DX Z (oral), vehicle: saline 104 % of control | dose: 12.5 mg/kg/injection, schedule: Q#A X Z (oral), vehicle: saline 108 % of control | dose: 16.0 mg/kg/injection, schedule: Q07DX003 (oral), vehicle: saline 103 % of control | dose: 20.0 mg/kg/injection, schedule: Q01DX Z (iv), vehicle: saline 100 % of control | dose: 25.0 mg/kg/injection, schedule: Q01DX Z (oral), vehicle: saline 104 % of control | dose: 25.0 mg/kg/injection, schedule: Q#A X Z (oral), vehicle: saline 112 % of control | dose: 31.0 mg/kg/injection, schedule: Q07DX003 (oral), vehicle: saline 98 % of control | dose: 37.0 mg/kg/injection, schedule: Q01DX Z (ip), vehicle: carboxymethylcellulose (CMC) 100 % of control | dose: 37.5 mg/kg/injection, schedule: Q01DX009 (ip), vehicle: other 101 % of control | dose: 37.5 mg/kg/injection, schedule: Q01DX017 (ip), vehicle: other 101 % of control | dose: 37.5 mg/kg/injection, schedule: Q#A X018 (ip), vehicle: other 97 % of control | dose: 38.0 mg/kg/injection, schedule: Q01DX Z (ip), vehicle: carboxymethylcellulose (CMC) 98 % of control | dose: 40.0 mg/kg/injection, schedule: Q01DX Z (iv), vehicle: saline 100 % of control | dose: 40.0 mg/kg/injection, schedule: Q#A X Z (ip), vehicle: saline 111 % of control | dose: 50.0 mg/kg/injection, schedule: Q01DX005 (ip), vehicle: saline 101 % of control | dose: 50.0 mg/kg/injection, schedule: Q01DX006 (iv), vehicle: saline 110 % of control | dose: 50.0 mg/kg/injection, schedule: Q01DX009 (ip), vehicle: saline 104 % of control | dose: 50.0 mg/kg/injection, schedule: Q01DX015 (ip), vehicle: other 115 % of control | dose: 50.0 mg/kg/injection, schedule: Q01DX Z (im), vehicle: saline 104 % of control | dose: 50.0 mg/kg/injection, schedule: Q01DX Z (oral), vehicle: saline 112 % of control | dose: 50.0 mg/kg/injection, schedule: Q01DX Z (sc), vehicle: saline 112 % of control | dose: 50.0 mg/kg/injection, schedule: Q## X003 (ip), vehicle: saline 102 % of control | dose: 50.0 mg/kg/injection, schedule: Q## X024 (ip), vehicle: saline 101 % of control | dose: 53.0 mg/kg/injection, schedule: Q01DX Z (ip), vehicle: carboxymethylcellulose (CMC) 89 % of control and 113 % of control | dose: 53.0 mg/kg/injection, schedule: Q01DX Z (ip), vehicle: saline 102 % of control | dose: 63.0 mg/kg/injection, schedule: Q07DX003 (oral), vehicle: saline 106 % of control | dose: 74.0 mg/kg/injection, schedule: Q01DX Z (ip), vehicle: carboxymethylcellulose (CMC) 113 % of control | dose: 75.0 mg/kg/injection, schedule: Q01DX009 (ip), vehicle: other 104 % of control | dose: 75.0 mg/kg/injection, schedule: Q01DX017 (ip), vehicle: other 104 % of control | dose: 75.0 mg/kg/injection, schedule: Q01DX Z (ip), vehicle: carboxymethylcellulose (CMC) 102 % of control | dose: 75.0 mg/kg/injection, schedule: Q#A X018 (ip), vehicle: other 118 % of control | dose: 80.0 mg/kg/injection, schedule: Q01DX012 (oral), vehicle: saline 94 % of control | dose: 80.0 mg/kg/injection, schedule: Q01DX Z (ip), vehicle: carboxymethylcellulose (CMC) 93 % of control | dose: 80.0 mg/kg/injection, schedule: Q01DX Z (ip), vehicle: saline 113 % of control | dose: 100.0 mg/kg/injection, schedule: Q01DX001 (ip), vehicle: saline 98 % of control | dose: 100.0 mg/kg/injection, schedule: Q01DX005 (ip), vehicle: saline 92 % of control | dose: 100.0 mg/kg/injection, schedule: Q01DX005 (oral), vehicle: saline 116 % of control | dose: 100.0 mg/kg/injection, schedule: Q01DX006 (iv), vehicle: saline 114 % of control | dose: 100.0 mg/kg/injection, schedule: Q01DX009 (oral), vehicle: saline 116 % of control | dose: 100.0 mg/kg/injection, schedule: Q01DX015 (ip), vehicle: clinical formulation 118 % of control | dose: 100.0 mg/kg/injection, schedule: Q## X003 (ip), vehicle: saline 106 % of control | dose: 100.0 mg/kg/injection, schedule: Q## X003 (oral), vehicle: saline 101 % of control | dose: 100.0 mg/kg/injection, schedule: Q## X008 (ip), vehicle: saline 101 % of control | dose: 120.0 mg/kg/injection, schedule: Q01DX012 (oral), vehicle: saline 105 % of control | dose: 120.0 mg/kg/injection, schedule: Q01DX Z (ip), vehicle: carboxymethylcellulose (CMC) 97 % of control | dose: 120.0 mg/kg/injection, schedule: Q01DX Z (ip), vehicle: saline 108 % of control and 117 % of control | dose: 125.0 mg/kg/injection, schedule: Q07DX003 (oral), vehicle: saline 106 % of control | dose: 135.0 mg/kg/injection, schedule: Q#A X Z (ip), vehicle: saline 102 % of control | dose: 149.0 mg/kg/injection, schedule: Q01DX Z (ip), vehicle: carboxymethylcellulose (CMC) 105 % of control | dose: 150.0 mg/kg/injection, schedule: Q01DX001 (ip), vehicle: other 109 % of control | dose: 150.0 mg/kg/injection, schedule: Q01DX Z (ip), vehicle: carboxymethylcellulose (CMC) 113 % of control | dose: 180.0 mg/kg/injection, schedule: Q01DX Z (ip), vehicle: carboxymethylcellulose (CMC) 98 % of control | dose: 180.0 mg/kg/injection, schedule: Q01DX Z (ip), vehicle: saline 105 % of control | dose: 180.0 mg/kg/injection, schedule: Q01DX Z (oral), vehicle: saline 110 % of control | dose: 200.0 mg/kg/injection, schedule: Q01DX001 (ip), vehicle: saline 110 % of control | dose: 200.0 mg/kg/injection, schedule: Q01DX005 (oral), vehicle: saline 110 % of control | dose: 200.0 mg/kg/injection, schedule: Q01DX008 (oral), vehicle: saline 93 % of control | dose: 200.0 mg/kg/injection, schedule: Q01DX015 (ip), vehicle: clinical formulation 108 % of control | dose: 200.0 mg/kg/injection, schedule: Q01DX015 (ip), vehicle: other 100 % of control | dose: 200.0 mg/kg/injection, schedule: Q## X003 (ip), vehicle: saline 98 % of control | dose: 200.0 mg/kg/injection, schedule: Q## X003 (oral), vehicle: saline 106 % of control | dose: 200.0 mg/kg/injection, schedule: Q## X008 (ip), vehicle: saline 104 % of control | dose: 200.0 mg/kg/injection, schedule: Q## X024 (ip), vehicle: saline 97 % of control | dose: 240.0 mg/kg/injection, schedule: Q03DX Z (ip), vehicle: saline 110 % of control | dose: 250.0 mg/kg/injection, schedule: Q01DX001 (oral), vehicle: saline 115 % of control | dose: 250.0 mg/kg/injection, schedule: Q03DX006 (oral), vehicle: saline 108 % of control | dose: 250.0 mg/kg/injection, schedule: Q07DX003 (oral), vehicle: saline 113 % of control | dose: 267.0 mg/kg/injection, schedule: Q## X024 (ip), vehicle: saline 106 % of control | dose: 267.0 mg/kg/injection, schedule: Q## X024 (oral), vehicle: saline 110 % of control | dose: 270.0 mg/kg/injection, schedule: Q01DX Z (ip), vehicle: carboxymethylcellulose (CMC) 101 % of control | dose: 270.0 mg/kg/injection, schedule: Q01DX Z (ip), vehicle: other 113 % of control | dose: 270.0 mg/kg/injection, schedule: Q01DX Z (ip), vehicle: saline 91 % of control | dose: 300.0 mg/kg/injection, schedule: Q01DX001 (ip), vehicle: other 103 % of control | dose: 360.0 mg/kg/injection, schedule: Q03DX Z (ip), vehicle: saline 110 % of control | dose: 400.0 mg/kg/injection, schedule: Q01DX001 (ip), vehicle: saline 97 % of control | dose: 400.0 mg/kg/injection, schedule: Q01DX006 (iv), vehicle: saline 118 % of control | dose: 400.0 mg/kg/injection, schedule: Q01DX008 (oral), vehicle: saline 92 % of control | dose: 400.0 mg/kg/injection, schedule: Q## X003 (ip), vehicle: saline 111 % of control | dose: 400.0 mg/kg/injection, schedule: Q## X003 (oral), vehicle: saline 105 % of control | dose: 400.0 mg/kg/injection, schedule: Q## X008 (ip), vehicle: saline 101 % of control | dose: 400.0 mg/kg/injection, schedule: Q## X024 (oral), vehicle: saline 102 % of control and 105 % of control | dose: 405.0 mg/kg/injection, schedule: Q01DX Z (ip), vehicle: other 116 % of control | dose: 500.0 mg/kg/injection, schedule: Q01DX001 (oral), vehicle: saline 110 % of control | dose: 500.0 mg/kg/injection, schedule: Q03DX006 (oral), vehicle: saline 115 % of control | dose: 500.0 mg/kg/injection, schedule: Q07DX003 (oral), vehicle: saline 111 % of control | dose: 540.0 mg/kg/injection, schedule: Q03DX Z (ip), vehicle: saline 115 % of control | dose: 560.0 mg/kg/injection, schedule: Q07DX Z (ip), vehicle: saline 110 % of control | dose: 600.0 mg/kg/injection, schedule: Q## X024 (oral), vehicle: saline 115 % of control | dose: 720.0 mg/kg/injection, schedule: Q01DX Z (oral), vehicle: saline 106 % of control | dose: 800.0 mg/kg/injection, schedule: Q01DX008 (oral), vehicle: saline 116 % of control | dose: 800.0 mg/kg/injection, schedule: Q## X003 (oral), vehicle: saline 102 % of control | dose: 1000.0 mg/kg/injection, schedule: Q01DX001 (oral), vehicle: saline 110 % of control | dose: 1000.0 mg/kg/injection, schedule: Q03DX006 (oral), vehicle: saline 114 % of control | dose: 2000.0 mg/kg/injection, schedule: Q01DX001 (oral), vehicle: saline 92 % of control
